Test results published in patent US20240423927A1, “COMPOSITIONS AND METHODS FOR USE IN IMMUNOTHERAPY” (INSTITUT CURIE, priority 2021, published 2024).

What was measured:
[1] = tested on: tumor-specific CD8 and CD4 T cell responses (PBMCs); assay: Ex vivo stimulation assay: IFN-γ ELISPOT of PBMCs stimulated with OVA and p15 peptides; type: in vivo, C57BL/6J mice; details: Example 1, four days after third s.c. injection, cGAMP-VLP 50 ng cGAMP s.c., Imatinib 10 mg/kg i.p.
Text: […] Mice were bled in the retro-orbital sinus and PBMCs were isolated from whole blood by lysing the red blood cells. […] Spots were developed using a mouse IFN-γ ELISPOT antibody (Diaclone) according to the manufacturer's instructions, and the number of spots enumerated using an ImmunoSpot analyzer.

[2] = tested on: MCA-OVA tumor; assay: Survival of treated MCA-OVA tumor-bearing mice; type: in vivo, C57BL/6J mice; details: Example 1; log-rank test; cGAMP-VLP 50 ng cGAMP s.c., Imatinib 10 mg/kg i.p.
[3] = tested on: MCA-OVA tumor; assay: Tumor growth monitoring in MCA-OVA tumor model; type: in vivo, C57BL/6J mice; details: Example 1; cGAMP-VLP 50 ng cGAMP s.c. three times, Imatinib 10 mg/kg i.p. days 6-10
[4] = tested on: STING; details: comparative statement (hSTING vs mSTING; or vs cGAMP); cited from earlier work
[5] = target: STING (Homo sapiens, UniProt Q86WV6); details: compared with cGAMP, reporter assays; cited from earlier work
Sequence of STING (Homo sapiens, UniProt Q86WV6) (Q86WV6 whole entry): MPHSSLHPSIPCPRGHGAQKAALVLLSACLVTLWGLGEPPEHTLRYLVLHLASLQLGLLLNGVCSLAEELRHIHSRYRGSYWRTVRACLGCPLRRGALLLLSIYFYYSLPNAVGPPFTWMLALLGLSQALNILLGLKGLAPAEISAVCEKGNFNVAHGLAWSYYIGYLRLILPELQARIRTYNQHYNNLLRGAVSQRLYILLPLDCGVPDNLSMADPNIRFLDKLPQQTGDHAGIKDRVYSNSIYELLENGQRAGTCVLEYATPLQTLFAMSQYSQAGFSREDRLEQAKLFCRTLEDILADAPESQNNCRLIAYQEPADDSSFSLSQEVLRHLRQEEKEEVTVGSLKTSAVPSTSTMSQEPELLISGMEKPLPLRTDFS

Row | Compound | Tumor-specific T cell responses in peripheral blood (IFN-γ ELISPOT) [1] | Survival (death event: tumor size >2 cm^3) [2] | Tumor growth [3] | Affinity/binding to STING [4] | Potency for inducing type I IFN [5]
1 | Cc1ccc(NC(=O)c2ccc(CN3CCN(C)CC3)cc2)cc1Nc1nccc(-c2cccnc2)n1 [Imatinib] | did not induce tumor-specific T cell responses compared to the PBS group | did not show survival benefit compared to PBS treatment | no effect on the tumor growth compared to control group |  | 
2 | COc1c(O)cc2oc3cc(O)c(CC=C(C)C)c(O)c3c(=O)c2c1CC=C(C)C [α-mangostin] |  |  |  | higher affinity to human (h)STING than to mSTING | weaker potency for inducing type I IFN compared with cGAMP
3 | Diaminobenzimidazole |  |  |  | enhanced binding to STING and cellular function as compared to cGAMP | 
